Measured values reported in patent US6291678A, “Process for the preparation of chiral keto-heterocycles of basic amino acids” (Warner-Lambert Company, priority 1998, dated 2001).

What was measured:
thrombin = thrombin (Homo sapiens, UniProt P00734); assay: Inhibition of thrombin catalytic activity (cleavage of chromogenic substrate S-2238); assay type: biochemical; settings: S-2238 substrate; 60 minutes incubation at room temperature; absorbance at 405 nm over 5 minutes
Procedure: Typically thrombin in 10 mM HEPES, 100 mM NaCl, 0.05% BSA, and 0.1% PEG-8000 and the test substance in DMSO are incubated for 60 minutes at room temperature.

trypsin = biological target: T1, trypsin (Bos taurus, UniProt P00760); assay: Trypsin inhibitory activity (chromogenic substrate S2222); assay type: biochemical; settings: protocol similar to thrombin
T1 sequence (P00760 24-246): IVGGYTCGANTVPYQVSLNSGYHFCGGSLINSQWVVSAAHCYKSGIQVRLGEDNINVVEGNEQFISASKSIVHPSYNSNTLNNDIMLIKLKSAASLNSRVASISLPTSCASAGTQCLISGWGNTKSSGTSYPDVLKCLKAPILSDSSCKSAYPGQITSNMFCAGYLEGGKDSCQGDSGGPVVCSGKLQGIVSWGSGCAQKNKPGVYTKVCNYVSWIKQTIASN
Procedure: The ability of compounds to act as inhibitors of thrombin catalytic activity is assessed by determination of that concentration of test substance that inhibits by 50% (IC50) the ability of thrombin to cleave the chromogenic substrate S-2238 (H-D-Phe-L-Pip-L-Arg-p-nitroanilide.2 HCl). Typically thrombin in 10 mM HEPES, 100 mM NaCl, 0.05% BSA, and 0.1% PEG-8000 and the test substance in DMSO are incubated for 60 minutes at room temperature. To this mixture is added S-2238 and the velocity of S-2238 hydrolysis measured by observing the intensity of absorbance at 405 nm over 5 minutes.
A similar protocol is followed to access the trypsin inhibitory activity of the test substances, except thrombin is replaced by trypsin and the chromogenic substrate is S2222 (N-Bz-L-Ile-L-Glu-L-Gly-L-Arg-p-nitroanilide.HCl).

rat carotid artery = assay: Rat arterial model of thrombosis (FeCl3 injury of the carotid artery), markers of anticoagulant activity in vivo; settings: for Fold Shift in aPTT: activated partial thromboplastin time at 30 minute time point, control aPTT 15 s; for Fold Shift in aPTT / Fold Shift in TT: loading dose 0.75 mg/kg plus infusion of 50 μg/kg/min; for Fold Shift in MOT: mean occlusion time, loading dose 0.75 mg/kg plus continual infusion of 50 μg/kg/min, control MOT 20 minutes; for Fold Shift in TT: thrombin time at 30 minute time point, control TT 30 s
Procedure: The ability of compounds to affect markers of anticoagulant activity in vivo were assessed in a rat arterial model of thrombosis. This model requires injury of the rat carotid artery by the application of a FeCl3 solution. Typically test substances are administered by applying a loading dose of 0.75 mg/kg plus continual infusion of 50 μg/kg/min.
The fold shift in aPTT and TT are measured at a 30 minute time point.

N=C(N)NCCC[C@H](NC(=O)[C@@H]1CC[C@H]2CN(C(=O)CCc3ccccc3)CC(=O)N21)C(=O)c1nccs1 [A]
IC50 (thrombin): 5 nM
IC50 (trypsin): 1 nM
Fold Shift in aPTT (rat carotid artery): 3.2
Fold Shift in MOT (rat carotid artery): 2.4
Fold Shift in TT (rat carotid artery): 13

N=C(N)N1CCC[C@@H](C[C@H](NC(=O)[C@@H]2CC[C@H]3CN(C(=O)CCc4ccccc4)CC(=O)N32)C(=O)c2nccs2)C1 [B]
IC50 (thrombin): 30 nM
IC50 (trypsin): 4350 nM
Fold Shift in aPTT (rat carotid artery): 3.1
Fold Shift in MOT (rat carotid artery): > 3
Fold Shift in TT (rat carotid artery): 15
